This note sets out measurements from patent US20230107216A1, “PANTETHEINE DERIVATIVES AND USES THEREOF” (Comet Therapeutics, Inc., priority 2018, published 2023).

Structures are written as SMILES. Like-named read-outs stand apart in the source and are kept apart here.

Format in all cases: cell-based
The test system of test [1] is HepG2 cells. Briefly: Glucose uptake (Glucose Uptake-Glo). The following applies: Homo sapiens, 10 uM, read-out: % increase in Glucose Uptake.
Test [2] concerns HepG2 cells. Briefly: Mitochondrial membrane potential (MITO-ID MP detection Kit). The following applies: Homo sapiens, 168 h, 7 days; for activation at 10 µM: read-out: % increase in Mitochondrial Membrane Potential. In short, it runs like this: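 Cells plated at 160000 cells/mL in DMEM with 10% FBS and 1% Pen-Strep, adhered overnight at 37° C., 5% CO2. Exposure to test compounds (50-10 μM) or 0.2% DMSO for 7 days without media change; membrane potential measured with MITO-ID MP detection kit per manufacturer.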

Test [3] deals with Methylmalonic Acidemia (MMA) primary fibroblasts Tsi 5224. As to the kind of experiment: Mitochondrial respiration, XFe96 Extracellular Flux Analyzer (OCR/ECAR), MMA fibroblasts Tsi 5224.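 On Increase in Maximal Respiratory Capacity AUC: relative to vehicle DMSO control.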 The conditions noted are these: Homo sapiens, Fibroblast. The method, boiled down:
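Primary fibroblasts (20000 cells/well) were held 24 h in supplemented DMEM before Seahorse OCR/ECAR profiling. Compounds at 10 to 50 μM or 0.1% DMSO were injected after baseline, then oligomycin 1 μg/ml, FCCP, and rotenone/antimycin A 0.5 μM. Values were normalized to Hoechst nuclear counts, baselined to pre-compound, and expressed relative to vehicle.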

The mark [4] stands for this setting: MMA Tsi 5224, assay condition D (1 mM glucose, 10% FBS), read-out: Increase in Maximal Respiratory Capacity AUC.
The mark [5] stands for this setting: MMA Tsi 5224, assay condition A (10 mM glucose, 2 mM L-glutamine, 1 mM pyruvate, 10% FBS), read-out: Increase in Maximal Respiratory Capacity AUC.
[6] abbreviates: read-out: % decrease in Mitochondrial Membrane Potential.

`CC(C)(CO)[C@@H](O)C(=O)NCCC(=O)NCCSC(CC(=O)OCC[N+](C)(C)C)C(=O)O` (stereo partly drawn) [Compound 51, [2-([3-carboxy-3-[(2-[3-[(2R)-2,4-dihydroxy-3,3-dimethylbutanamido]propanamido]ethyl)sulfanyl]propanoyl]oxy)ethyl]trimethylazanium]: the activation at 10 µM with HepG2 cells [1] is at least 30%; with HepG2 cells [2] (10 uM), over 10%.
For the compound `CC(C)(CO)[C@@H](O)C(=O)NCCC(=O)NCCSC(=O)C1CCC(=O)N1` (stereo partly drawn) [Compound 1227, S-2-{3-[(R)-2,4-dihydroxy-3,3-dimethylbutyrylamino]propionylamino}ethyl 5-oxo-2-pyrrolidinecarbothioate], the activation at 10 µM is at least 10% in test [3] (setting [4]) and at least 10% in test [3] (MMA Tsi 5224, assay condition D (1 mM glucose, 10% FBS), read-out: Increase in Spare Capacity AUC). Besides, the inhibition at 10 µM in the test on HepG2 cells [2] (10 uM, read-out: % decrease in Mitochondrial Membrane Potential) is over 30%.
For the compound `CCC(C)C(=O)CC(=O)SCCNC(=O)CCNC(=O)[C@H](O)C(C)(C)CO` (stereo partly drawn) [Compound 1240, S-(2-(3-((R)-2,4-dihydroxy-3,3-dimethylbutanamido)propanamido)ethyl) 4-methyl-3-oxohexanethioate], the activation at 10 µM in test [3] (setting [5]) and in test [3] (setting [4]) was at least 10% each time. Besides, the inhibition at 50 µM in the test on HepG2 cells [2] (setting [6]) was over 50%.
Consider `CC1(CC(=O)SCCNC(=O)CCNC(=O)[C@H](O)C(C)(C)CO)OCCO1` [Compound 1252, (R)—S-(2-(3-(2,4-dihydroxy-3,3-dimethylbutanamido)propanamido)ethyl)-2-(2-methyl-1,3-dioxolan-2-yl)ethanethioate], for which the figures for the activation at 10 µM (in test [3] (setting [4]); with HepG2 cells [2] (10 uM)) were at least 10% and over 20%, respectively.
Regarding `CC(O)C(C(=O)SCCNC(=O)CCNC(=O)[C@H](O)C(C)(C)CO)C(C)O` (stereo partly drawn) [Compound 1285, (2R)-2,4-dihydroxy-N-[2-[(2-[[3-hydroxy-2-(1-hydroxyethyl)butanoyl]sulfanyl]ethyl)carbamoyl]ethyl]-3,3-dimethylbutanamide], the activation at 10 µM in the test with HepG2 cells [1] is at least 30%. Moreover, the inhibition at 50 µM in the test on HepG2 cells [2] (setting [6]) is over 30%.
`CC(C)(CO)[C@@H](OC(=O)CCC(=O)O)C(=O)NCCC(=O)NCCS` [Compound 1311, (R)-4-((4-hydroxy-1-((3-((2-mercaptoethyl)amino)-3-oxopropyl)amino)-3,3-dimethyl-1-oxobutan-2-yl)oxy)-4-oxobutanoic acid]: the activation at 10 µM in test [3] (setting [5]) was at least 10%; in test [3] (setting [4]), at least 10%; with HepG2 cells [2] (10 uM), over 10%.
